Experimental findings from US7589213B2 (priority 2007, dated 2009) are described below.

One test addresses hIP (Homo sapiens, UniProt P43119). The experiment in a line: Other receptors functional EC50, hIP. It counts as cell-based. The text has this: (§1) U.S. patent application Ser. No. 11/553,143, filed on Oct. 26, 2006, incorporated by reference herein, describes the methods used to obtain the in vitro data in the table below.
A further test concerns the target T1, hEP3A (Homo sapiens, UniProt P43115).
T1 sequence (P43115 1-390): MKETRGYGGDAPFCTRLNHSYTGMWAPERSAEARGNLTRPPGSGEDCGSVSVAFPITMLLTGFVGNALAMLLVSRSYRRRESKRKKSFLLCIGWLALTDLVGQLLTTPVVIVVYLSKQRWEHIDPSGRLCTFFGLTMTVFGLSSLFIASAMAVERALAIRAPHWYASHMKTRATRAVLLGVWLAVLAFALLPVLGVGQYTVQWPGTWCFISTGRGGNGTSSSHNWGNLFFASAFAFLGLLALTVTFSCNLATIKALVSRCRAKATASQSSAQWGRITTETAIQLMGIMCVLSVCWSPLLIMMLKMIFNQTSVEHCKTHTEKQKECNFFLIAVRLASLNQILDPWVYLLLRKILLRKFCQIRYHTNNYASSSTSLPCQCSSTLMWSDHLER
In words: Other receptors functional EC50, hEP3A. It counts as cell-based.
Description: as §1

A further test deals with T2, hDP (Homo sapiens, UniProt Q13258).
T2 sequence (Q13258 1-359): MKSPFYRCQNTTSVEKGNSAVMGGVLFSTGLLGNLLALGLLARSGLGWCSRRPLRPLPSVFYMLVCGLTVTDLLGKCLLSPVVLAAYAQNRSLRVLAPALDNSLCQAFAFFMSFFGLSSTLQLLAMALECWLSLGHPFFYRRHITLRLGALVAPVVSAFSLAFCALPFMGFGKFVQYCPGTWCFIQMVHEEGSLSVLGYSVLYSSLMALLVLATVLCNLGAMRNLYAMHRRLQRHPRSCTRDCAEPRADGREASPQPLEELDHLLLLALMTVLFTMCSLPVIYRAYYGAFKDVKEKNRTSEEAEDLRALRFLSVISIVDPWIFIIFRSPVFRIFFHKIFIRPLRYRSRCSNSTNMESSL
In words: Other receptors functional EC50, hDP. It counts as cell-based.
Description: as §1

Test [1] addresses T3, EP2 (Homo sapiens, UniProt P43116). The experiment in a line: EP2 cAMP assay. The class given is cell-based.
Description: as §1

The target in test [2] is T3, EP2. In words: EP2 binding (Ki).
Description: as §1

For test [3], the target named is T3, EP2. In words: EP2 flipr assay. It counts as cell-based.
Description: as §1

In another test the target is EP4 (Homo sapiens, UniProt P35408). The experiment in a line: EP4 binding (KI).
EP4, sequence (P35408 whole entry): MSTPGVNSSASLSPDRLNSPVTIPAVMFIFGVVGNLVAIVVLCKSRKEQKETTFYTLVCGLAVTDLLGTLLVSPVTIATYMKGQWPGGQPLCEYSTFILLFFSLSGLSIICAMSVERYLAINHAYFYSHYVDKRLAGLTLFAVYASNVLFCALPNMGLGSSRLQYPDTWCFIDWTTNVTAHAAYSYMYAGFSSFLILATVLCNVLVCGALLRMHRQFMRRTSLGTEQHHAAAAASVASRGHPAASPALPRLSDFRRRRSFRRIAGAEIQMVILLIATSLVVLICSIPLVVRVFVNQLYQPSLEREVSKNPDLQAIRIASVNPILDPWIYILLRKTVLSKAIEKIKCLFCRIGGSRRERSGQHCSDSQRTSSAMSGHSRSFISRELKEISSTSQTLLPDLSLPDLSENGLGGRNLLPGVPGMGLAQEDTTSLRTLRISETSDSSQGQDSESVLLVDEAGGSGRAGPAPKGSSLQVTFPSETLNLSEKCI
Description: as §1

The next test concerns the target T4, hTP (Homo sapiens, UniProt P21731).
T4 sequence (P21731 1-343): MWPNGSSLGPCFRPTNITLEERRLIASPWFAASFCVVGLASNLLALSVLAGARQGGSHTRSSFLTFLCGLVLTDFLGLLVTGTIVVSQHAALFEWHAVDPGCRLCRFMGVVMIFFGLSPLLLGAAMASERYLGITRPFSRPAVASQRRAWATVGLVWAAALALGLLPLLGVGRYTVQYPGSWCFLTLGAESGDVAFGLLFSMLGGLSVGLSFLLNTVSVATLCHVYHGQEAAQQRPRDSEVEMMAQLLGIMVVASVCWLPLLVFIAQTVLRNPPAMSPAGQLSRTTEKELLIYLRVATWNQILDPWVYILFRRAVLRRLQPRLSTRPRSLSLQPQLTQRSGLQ
In words: Other receptors functional EC50, hTP. It counts as cell-based.
Description: as §1

The target in another test is T5, hEP1 (Homo sapiens, UniProt P34995).
T5 sequence (P34995 1-402): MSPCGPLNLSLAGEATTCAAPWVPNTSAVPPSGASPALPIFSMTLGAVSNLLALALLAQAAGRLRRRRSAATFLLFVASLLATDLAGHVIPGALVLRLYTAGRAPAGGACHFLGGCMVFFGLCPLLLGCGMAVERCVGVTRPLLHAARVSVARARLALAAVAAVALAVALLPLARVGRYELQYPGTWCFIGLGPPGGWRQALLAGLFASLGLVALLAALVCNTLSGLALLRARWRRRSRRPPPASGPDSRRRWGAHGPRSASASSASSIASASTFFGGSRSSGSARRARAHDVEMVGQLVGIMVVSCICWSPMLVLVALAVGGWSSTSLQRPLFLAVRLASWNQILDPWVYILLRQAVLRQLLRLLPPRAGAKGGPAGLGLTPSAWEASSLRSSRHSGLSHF
The experiment in a line: Other receptors functional EC50, hEP1. It counts as cell-based.
Description: as §1

The target of another test is hFP (Homo sapiens, UniProt P43088). In words: Other receptors functional EC50, hFP. The class given is cell-based.
hFP, sequence (P43088 whole entry): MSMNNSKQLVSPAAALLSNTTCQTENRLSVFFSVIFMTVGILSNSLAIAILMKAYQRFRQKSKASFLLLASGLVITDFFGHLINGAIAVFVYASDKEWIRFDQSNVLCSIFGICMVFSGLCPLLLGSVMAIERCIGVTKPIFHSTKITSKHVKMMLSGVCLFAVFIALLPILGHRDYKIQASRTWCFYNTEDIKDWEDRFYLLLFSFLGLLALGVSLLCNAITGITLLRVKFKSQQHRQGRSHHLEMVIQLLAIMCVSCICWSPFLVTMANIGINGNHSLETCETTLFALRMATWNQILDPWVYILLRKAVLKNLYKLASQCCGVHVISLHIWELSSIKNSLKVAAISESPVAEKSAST
Description: as §1

T3 sequence (P43116 whole entry): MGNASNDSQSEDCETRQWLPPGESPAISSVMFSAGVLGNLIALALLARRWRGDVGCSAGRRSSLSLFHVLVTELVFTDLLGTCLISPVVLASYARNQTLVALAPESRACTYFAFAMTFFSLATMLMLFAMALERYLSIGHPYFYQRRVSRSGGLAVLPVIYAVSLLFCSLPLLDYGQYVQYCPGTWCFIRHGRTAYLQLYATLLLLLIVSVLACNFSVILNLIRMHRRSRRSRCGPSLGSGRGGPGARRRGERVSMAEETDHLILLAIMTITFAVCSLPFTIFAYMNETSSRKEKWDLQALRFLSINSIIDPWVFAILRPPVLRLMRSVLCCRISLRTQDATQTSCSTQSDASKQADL
hIP, sequence (P43119 whole entry): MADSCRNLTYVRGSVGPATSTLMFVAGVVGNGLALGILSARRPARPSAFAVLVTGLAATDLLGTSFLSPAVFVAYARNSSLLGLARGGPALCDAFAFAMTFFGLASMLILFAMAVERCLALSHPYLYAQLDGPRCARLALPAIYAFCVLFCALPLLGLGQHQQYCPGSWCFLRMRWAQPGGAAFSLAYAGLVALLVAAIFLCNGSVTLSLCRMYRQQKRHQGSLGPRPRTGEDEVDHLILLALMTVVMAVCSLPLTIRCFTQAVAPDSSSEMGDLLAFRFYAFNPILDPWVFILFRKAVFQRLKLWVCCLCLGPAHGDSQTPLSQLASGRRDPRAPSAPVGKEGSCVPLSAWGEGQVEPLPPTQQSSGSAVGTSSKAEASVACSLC

By EC50 is commonly meant the midpoint of the concentration-response curve. Usually Ki stands for the dissociation constant of the complex between target and ligand, obtained from inhibition or displacement. A high value points to weaker binding. On to `CCCCCC(O)c1ccc(N2C(=O)CC[C@@H]2CCSc2ncc(C(=O)O)s2)cc1` (stereo partly drawn) [compound 22, (R)-2-(2-(1-(4-(1-hydroxyhexyl)phenyl)-5-oxopyrrolidin-2-yl)ethylthio)thiazole-5-carboxylic acid], for which the concentration for a half-maximal effect (EC50) was greater than 10000 nM at hIP; 11400 nM at hEP3A; greater than 10000 nM on hDP; 4 nM at EP2 [1]; 1800 nM on EP2 [3]. The Ki at EP2 [2] was 389 nM; on EP4 it was greater than 10000 nM.

As to `CCCCCC(O)c1ccc(N2C(=O)CC[C@@H]2CCSc2nc(C(=O)O)cs2)cc1` (stereo partly drawn) [compound 14, (R)-2-(2-(1-(4-(1-hydroxyhexyl)phenyl)-5-oxopyrrolidin-2-yl)ethylthio)thiazole-4-carboxylic acid], the 50% effective concentration (EC50) at hIP was greater than 10000 nM; on hTP it was greater than 10000 nM; at hEP3A, 44 nM; on hDP, greater than 10000 nM; at EP2 [1] it was 0.19 nM; on hEP1, greater than 10000 nM. This compound also had an EC50 at EP2 [3] of 36 nM. Also, the Ki on EP2 [2] was 11 nM; at EP4, greater than 10000 nM.

Take `O=C(O)c1ccc(COC[C@H]2CCC(=O)N2c2ccc(-c3nccs3)cc2)s1` [compound 58, (R)-5-(((5-oxo-1-(4-(thiazol-2-yl)phenyl)pyrrolidin-2-yl)methoxy)methyl)thiophene-2-carboxylic acid]: the EC50 on hTP was greater than 10000 nM; at hDP it was 4640 nM; at hFP, greater than 10000 nM; on EP2 [1], 38 nM; at EP2 [3], 5890 nM. Besides, the inhibition constant (Ki) at EP2 [2] stood at 215 nM.
